Measurements: patent US20240018136A1, “CDK Inhibitors And Their Use As Pharmaceuticals” (Prelude Therapeutics, Incorporated, priority 2022, published 2024)

What was measured:
CDK2/Cyclin E2 = CDK2/Cyclin E2 (Homo sapiens, UniProt P24941); experiment: CDK2/CyclinE2 enzymatic activity assay (TR-FRET); format: biochemical; settings: ATP 1 mM final, read-out: CDK2_E1 IC50
Experimental: CDK2/CyclinE2 Enzymatic Activity Assay
(§1) The inhibitory activity of compounds was evaluated in vitro using TR-FRET assay with white 384-well low volume microplate (Greiner Bio-One). CDK2/Cyclin E2 catalyzed phosphorylation of peptide in the presence and absence of compounds was measured and used in IC50 determination. Recombinant protein complex CDK2/Cyclin E2, expressed from insect cell, was purchased from ProQinase. Testing compounds were dissolved in DMSO at 1 mM and tested in 9-dose IC50 mode. The reaction mixture was prepared by mixing CDK2/CyclinE2 (1 nM final), ULight-4E-BP1 (50 nM final, Perkinelmer, TRF0128-D), and ATP (1 mM final) in assay buffer (20 mM of HEPES pH 7.4, 1 mM of EGTA, 0.05% BSA, 0.005% Tween 20, and 1 mM TCEP). The compound of interest in DMSO was added to each well in 3-fold serial dilution by dispenser (TECAN D300E) to make a 9.9 μL of reaction mixture. After 20 minutes preincubation at room temperature, 0.1 μL MgCl2 (10 mM final) was added to initiate the reaction. Following a 45 minute incubation at 37° C., the reaction was stopped by addition of 2 μL of quenching buffer consisting of Lance detection buffer (Perkinelmer CR97-100C), LANCE Ultra Europium-anti-P-4E-BP1 (Perkinelmer, TRF0216-D), EDTA, and incubate at room temperature for an additional 60 minutes in the dark. The reaction signal was measured by Envision multimode plate reader (PerkinElmer, 2102-0010). IC50 values were determined by fitting the data to the standard 4 parameters with Hill Slope using GraphPad Prism software.

CDK4/Cyclin D1 = target: T1, CDK4/Cyclin D1 (Homo sapiens, UniProt P11802); experiment: CDK4/CyclinD1 enzymatic activity assay (TR-FRET); format: biochemical; settings: ATP 2 mM final, read-out: CDK4_D1 IC50
T1 construct: purchased ProQinase; host or cells: insect cell
T1 sequence (P11802 whole entry): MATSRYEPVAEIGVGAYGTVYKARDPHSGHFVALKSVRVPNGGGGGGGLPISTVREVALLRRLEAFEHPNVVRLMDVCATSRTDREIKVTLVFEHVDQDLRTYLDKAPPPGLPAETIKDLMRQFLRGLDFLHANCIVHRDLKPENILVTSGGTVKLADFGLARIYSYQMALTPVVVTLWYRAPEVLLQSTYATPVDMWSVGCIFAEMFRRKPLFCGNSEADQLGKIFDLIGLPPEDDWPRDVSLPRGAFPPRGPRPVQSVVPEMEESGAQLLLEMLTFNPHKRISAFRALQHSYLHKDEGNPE
T1 sequence (P24385 whole entry partner): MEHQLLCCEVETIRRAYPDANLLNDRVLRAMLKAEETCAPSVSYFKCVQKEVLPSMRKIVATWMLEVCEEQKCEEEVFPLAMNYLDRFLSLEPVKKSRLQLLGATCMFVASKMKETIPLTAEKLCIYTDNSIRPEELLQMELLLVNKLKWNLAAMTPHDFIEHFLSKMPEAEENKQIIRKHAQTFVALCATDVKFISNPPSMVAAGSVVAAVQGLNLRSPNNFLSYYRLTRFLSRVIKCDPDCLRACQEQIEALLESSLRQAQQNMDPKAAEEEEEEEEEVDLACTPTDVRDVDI
Experimental: CDK4/CyclinD1 Enzymatic Activity Assay
as §1, with “Bio-One). CDK4/Cyclin D1” for “Bio-One). CDK2/Cyclin E2”, “in IC5” for “in IC50”, “complex CDK4/Cyclin D1,” for “complex CDK2/Cyclin E2,”, “mixing CDK4/CyclinD1” for “mixing CDK2/CyclinE2”, “ULight-4E-BP1 (100” for “ULight-4E-BP1 (50”, “ATP (2” for “ATP (1”

OVCAR3 p-RB = experiment: pRB ICW assay in OVCAR3 cells; format: cell-based; settings: Homo sapiens, OVCAR-3, incubated with compound for 2 hours
Experimental: pRB ICW Assay in OVCAR3 Cells
OVCAR3 cells were maintained in RPMI (Corning, Catalog #: 10-040-CV) supplemented with 10% v/v FBS (Gibco, Catalog #: 26140-079), 1% v/v Penicillin Streptomycin (Gibco, Catalog #15140-122.) OVCAR3 cells grown at log phase were trypsinized, counted, and resuspended in fresh medium to reach a final density of 6.7e4 cells/mL and 75 μL of culture were dispensed into a 384-well plate (Falcon, cat #353962) using Multidrop Combi dispenser (Thermo Scientific). The next day, compounds were dispensed as a 9-point, ½ log serial dilution using a Tecan digital dispenser (D300e), and cells were incubated with compound for 2 hours in a humidified incubator at 37° C. A reference compound at a final concentration of 10 μM was used as a control for maximum inhibition. Each compound was tested in duplicates in each experiment. At the end of the incubation, 25 μL of 16% paraformaldehyde (Electron Microscopy, cat #15710) was slowly added to each well and the plate was incubated at room temperature (RT) for 30 minutes to fix cells. Cells were then permeabilized by incubating with 50 μL/well of wash buffer (lx PBS with 0.1% Triton X-100) 5×5 minutes, followed by 1 hour blocking with 30 μL/well of Odyssey blocking buffer (Li-COR, cat #927-40000), all at RT. Anti-phosphor RB antibody (Cell signaling 8516S) was diluted 1:1000 in Odyssey blocking buffer and 20 μL was added to all wells and incubated overnight in 4° C. with gently rocking. The next day, cells were washed 5×5 min with 50 μL/well of wash buffer, followed with 1 hour incubation with secondary antibody and DRAQ5 diluted in Odyssey blocking buffer (1:500 dilution for secondary antibody and 1:2000 dilution for DRAQ5), 5×5 min washes, and one last wash with water. Plates were dried in 37° C. oven for 5 min and scanned using Li-COR Odyssey CLx imaging system to acquire intensities at 700 and 800 nm channels.

IC50 (CDK2/Cyclin E2) [nM] | IC50 (CDK4/Cyclin D1) [nM] | IC50 (OVCAR3 p-RB) [nM] | Compound
≤ 100 | ≤ 100 | 100 to 1000 | CS(=O)(=O)N1CCC(Nc2ncc(C(F)(F)F)c(-c3cnc(NC4COC4)s3)n2)CC1 [Example 38, 5-[2-[(1-Methylsulfonylpiperidin-4-yl)amino]-5-(trifluoromethyl)pyrimidin-4-yl]-N-(oxetan-3-yl)-1,3-thiazol-2-amine]
≤ 100 | 100 to 1000 | > 1000 | CN(C)Cc1ncc(-c2nc(NC3CCN(S(C)(=O)=O)CC3)ncc2C(F)(F)F)s1 [Example 65, 4-[2-[(Dimethylamino)methyl]-1,3-thiazol-5-yl]-N-(1-methylsulfonylpiperidin-4-yl)-5-(trifluoromethyl)pyrimidin-2-amine]
≤ 100 | ≤ 100 | 100 to 1000 | CS(=O)(=O)N1CCC(Nc2ncc(C(F)(F)F)c(-c3cnc(O[C@@H]4CCC[C@H]4O)s3)n2)CC1 [Example 44, (1R,2R)-2-((5-(2-((1-(Methylsulfonyl)piperidin-4-yl)amino)-5-(trifluoromethyl)pyrimidin-4-yl)thiazol-2-yl)oxy)cyclopentanol]
≤ 100 | 100 to 1000 | 100 to 1000 | CS(=O)(=O)N1CCC(Nc2ncc(C(F)(F)F)c(-c3cnc(Cl)s3)n2)CC1 [Example 26, 4-(2-chlorothiazol-5-yl)-N-(1-(methylsulfonyl)piperidin-4-yl)-5-(trifluoromethyl) pyrimidin-2-amine]
≤ 100 | 100 to 1000 | 100 to 1000 | Cc1ncc(-c2nc(NC3CCN(S(=O)(=O)C4CC4)CC3)ncc2C(F)(F)F)s1 [Example 46, N-(1-(Cyclopropylsulfonyl)piperidin-4-yl)-4-(2-methylthiazol-5-yl)-5-(trifluoromethyl)pyrimidin-2-amine]
≤ 100 | ≤ 100 | ≤ 100 | CC(O)C(C)Nc1ncc(-c2nc(NC3CCN(S(C)(=O)=O)CC3)ncc2C(F)(F)F)s1 (stereo not drawn) [Example 30, 3-[[5-[2-[(1-methylsulfonylpiperidin-4-yl)amino]-5-(trifluoromethyl)pyrimidin-4-yl]-1,3-thiazol-2-yl]amino]butan-2-ol]
≤ 100 | 100 to 1000 | > 1000 | CS(=O)(=O)N1CCC(Nc2ncc(C(F)(F)F)c(-c3cnc(CN)s3)n2)CC1 [Example 64, 4-[2-(Aminomethyl)-1,3-thiazol-5-yl]-N-(1-methylsulfonylpiperidin-4-yl)-5-(trifluoromethyl)pyrimidin-2-amine]
≤ 100 | ≤ 100 | ≤ 100 | Cn1cc(S(=O)(=O)N2CCC(Nc3ncc(C(F)(F)F)c(-c4cnc(CC(C)(C)O)s4)n3)CC2)cn1 [Example 67, 2-Methyl-1-(5-(2-((1-((1-methyl-1H-pyrazol-4-yl)sulfonyl)piperidin-4-yl)amino)-5-(trifluoromethyl)pyrimidin-4-yl)thiazol-2-yl)propan-2-ol]

Continued, compound first:

Compound | IC50 (CDK2/Cyclin E2) [nM] | IC50 (CDK4/Cyclin D1) [nM] | IC50 (OVCAR3 p-RB) [nM]
Cn1cc(S(=O)(=O)N2CC[C@H](Nc3ncc(C(F)(F)F)c(-c4cnc(CC(C)(C)O)s4)n3)[C@H](F)C2)cn1 [Example 73, 1-(5-(2-(((3R,4S)-3-fluoro-1-((1-methyl-1H-pyrazol-4-yl)sulfonyl)piperidin-4-yl)amino)-5-(trifluoromethyl)pyrimidin-4-yl)thiazol-2-yl)-2-methylpropan-2-ol] | ≤ 100 | ≤ 100 | ≤ 100
Cn1cc(S(=O)(=O)N2CCC(Nc3ncc(C(F)(F)F)c(-c4cnc(C5(O)CCCC5)s4)n3)CC2)cn1 [Example 95, 1-(5-(2-((1-((1-methyl-1H-pyrazol-4-yl)sulfonyl)piperidin-4-yl)amino)-5-(trifluoromethyl)pyrimidin-4-yl)thiazol-2-yl)cyclopentan-1-ol] | ≤ 100 | ≤ 100 | ≤ 100
C[C@@H]1CN(S(=O)(=O)c2cnn(C)c2)CC[C@@H]1Nc1ncc(C(F)(F)F)c(-c2cnc(CC(C)(C)O)s2)n1 [Example 71, 2-methyl-1-(5-(2-(((3R,4S)-3-methyl-1-((1-methyl-1H-pyrazol-4-yl)sulfonyl)piperidin-4-yl)amino)-5-(trifluoromethyl)pyrimidin-4-yl)thiazol-2-yl)propan-2-ol] | ≤ 100 | 100 to 1000 | 100 to 1000
CC(O)c1ncc(-c2nc(N[C@H]3CCN(S(=O)(=O)c4cnn(C)c4)C[C@H]3C)ncc2C(F)(F)F)s1 (stereo partly drawn) [Example 102, 1-(5-(2-(((3R,4S)-3-methyl-1-((1-methyl-1H-pyrazol-4-yl)sulfonyl)piperidin-4-yl)amino)-5-(trifluoromethyl)pyrimidin-4-yl)thiazol-2-yl)ethan-1-ol] | ≤ 100 | 100 to 1000 | 100 to 1000
Cc1cc(C(C)O)ccc1-c1ncc(-c2nc(NC3CCN(S(C)(=O)=O)CC3)ncc2C(F)(F)F)s1 (stereo not drawn) [Example 7, 1-[3-Methyl-4-[5-[2-[(1-methylsulfonylpiperidin-4-yl)amino]-5-(trifluoromethyl)pyrimidin-4-yl]-1,3-thiazol-2-yl]phenyl]ethanol] | ≤ 100 | ≤ 100 | 100 to 1000
CC(O)c1ncc(-c2nc(NC3CCN(S(=O)(=O)c4cn(C)cn4)CC3)ncc2C(F)(F)F)s1 (stereo not drawn) [Example 83, 1-(5-(2-((1-((1-methyl-1H-imidazol-4-yl)sulfonyl)piperidin-4-yl)amino)-5-(trifluoromethyl)pyrimidin-4-yl)thiazol-2-yl)ethan-1-ol] | ≤ 100 | ≤ 100 | ≤ 100
CS(=O)(=O)N1CCC(Nc2ncc(C(F)(F)F)c(-c3cnc(-c4ccc(CO)cc4Cl)s3)n2)CC1 [Example 9, [3-Chloro-4-[5-[2-[(1-methylsulfonylpiperidin-4-yl)amino]-5-(trifluoromethyl)pyrimidin-4-yl]-1,3-thiazol-2-yl]phenyl]methanol] | ≤ 100 | ≤ 100 | 100 to 1000
CC(O)c1ncc(-c2nc(N[C@H]3CCN(S(=O)(=O)c4cnn(C)c4)C[C@@H]3F)ncc2C(F)(F)F)s1 (stereo partly drawn) [Example 100, 1-(5-(2-(((3S,4S)-3-fluoro-1-((1-methyl-1H-pyrazol-4-yl)sulfonyl)piperidin-4-yl)amino)-5-(trifluoromethyl)pyrimidin-4-yl)thiazol-2-yl)ethan-1-ol] | ≤ 100 | 100 to 1000 | > 1000
